In US20230382944A1, “NOVEL COCRYSTALS OF DEXAMETHASONE” (Versitech Limited, priority 2022, published 2023):

Tests used:
Type in all cases: physicochemical
[1] = Particle size distribution measurement by laser diffraction; conditions: sieved below 63 μm, n = 3; for Span: (D90-D10)/D50
Method: The particle size and size distribution of the powders was determined using laser diffraction equipment, Mastersizer 3000 (Malvern Instruments Ltd, Worcestershire, UK) with Aero S dry powder disperser. […] The particle size distribution was calculated from the light scattering pattern using Mie theory. Particle size at 10% (D10), 50% (D50), 90% (D90) of the volume distribution were calculated automatically using the Mastersizer 3000 software […]. Span was calculated as (D90-D10)/D50. All the samples were measured in triplicate.

[2] = Stability study: drug assay by HPLC and PXRD before and after storage at 25° C./75% RH; conditions: storage 25° C./75% RH; for % Difference (Day 0-Day 30): Day 0 vs Day 30
Method: (§1) The mobile phase consisted of a mixture of methanol and water (65:35, v/v). A 30 μL aliquot of each sample solution was injected onto the column with a flow rate of 1 mL/min.
The samples before and after the storage were collected for PXRD analysis.

[3] = In-vitro drug release study for nasal delivery in pH 5.5 simulated nasal fluid; conditions: for IDR ratio of DEX cocrystals to DEX: pH 5.5 SNF, estimated by ratio of the slope with sphere assumption; for release in SNF relative to raw DEX (fold faster) / dissolution relative to raw DEX (fold faster): pH 5.5 simulated nasal fluid; for release in SNF relative to raw DEX (fold faster): at 120 min, particle size below 63 μm; for dissolution relative to raw DEX (fold faster): time point not stated
Method: as §1
The solution was stirred at 50 rpm on a magnetic stirrer. The dissolution medium and temperature were selected to mimic the physiological condition in the nasal cavity^35, 36. At designated times of 5, 10, 15, 20, 30, 45, 60, 90, and 120 min, 1 mL of the dissolution medium was withdrawn and replaced with an equal volume of fresh medium. The sample solution was filtered through 0.45 μm nylon syringe filters and assayed for drug content by HPLC. The intrinsic dissolution rate (IDR) is determined by the following equation: IDR=(dm/dt)max/A, where (dm/dt)max is the slope of the initial linear region of the cumulative dissolution curve until 10% of drug is dissolved, and A is the specific surface area of the dissolution sample. The following assumptions were made: (i) spherical particles, (ii) constant particle size, and (iii) constant number of particles during the initial phase of the dissolution experiment under sink condition. With the assumptions, the particle size distribution data collected by laser diffractometry is used for the particle surface area (SAparticle) calculation. The total number of particles (n) subject to dissolution is calculated by Vbulk/Vparticle, where Vparticle is the volume of each primary particle, and Vbulk is the volume of compound added to the dissolution medium. The total surface area of all particles added to the dissolution medium is thus calculated through nSAparticle. Finally, the specific surface area (A, m^2/g) defined as the total surface area of a material per unit of mass could be obtained.

[4] = In-vitro aerosol performance evaluation with Next Generation Impactor; conditions: NGI; for FPF: 90 L/min, particles <5 μm vs recovered dose
Method: The spray dryer is equipped with a Buchi B-296 Dehumidifier and B-295 Inert Loop and a spray nozzle tip diameter of 0.7 mm with nitrogen as the atomization gas. The formulations were prepared according to the processing parameters listed in Table 6, above, with a rate of aspirations fixed at 100% (approximately 35 m^3/h), resulting in an outlet temperature of about 44° C.
A thin layer of silicon grease (Slipicone; DC Products, Waverley, VIC, Australia) coated onto the impactor stages minimizes particle bounce. […] Precise amounts of methanol were used for rinsing DEX and RES in all stages. The solutions were subsequently filtered using a 0.45 μm nylon syringe filters and the solutions assayed by HPLC. The recovered dose, fine particle fraction (FPF), mass median aerodynamic diameter (MMAD), and geometric standard deviation (GSD) were calculated. The FPF is the mass fraction of the particles <5 μm with respect to the recovered dose. The recovered dose was defined as the sum of powder mass assayed on all the parts.

[5] = spray-dried 1:1 from methanol, flow rate 90 L/min

SMILES	Volumetric size D10 [1]	Volumetric size D50 [1]	Span [1]	% of DEX Remaining (n = 3) ([2]; Day 0)	% Difference (Day 0-Day 30) [2]	% of DEX Remaining (n = 3) ([2]; Day 7)	% of DEX Remaining (n = 3) ([2]; Day 30)	Volumetric size D90 [1]	IDR ratio of DEX cocrystals to DEX [3]	release in SNF relative to raw DEX (fold faster) [3]	dissolution relative to raw DEX (fold faster) [3]	FPF ([4]; spray-dried 1:1 from methanol)	FPF ([4]; spray-dried 1:1 from methanol, listed as spray dried cocrystal formulation)	GSD [4, 5]	MMAD [4, 5]	MMAD ([4]; spray-dried 1:1 from methanol, flow rate 90 L/min, listed as spray dried cocrystal formulation)	aerosolized powders deposited on stages 3-6 ([4]; spray-dried, aerodynamic diameters 3.61 to 0.76 μm)
C[C@@H]1C[C@H]2[C@@H]3CCC4=CC(=O)C=C[C@]4(C)[C@@]3(F)[C@@H](O)C[C@]2(C)[C@@]1(O)C(=O)CO [DEX, 9-fluoro-11β,17,21-trihydroxy-16α-methylpregna-1,4-diene-3,20-dione, reference compound]	0.93 ± 0.16 μm	1.52 ± 0.50 μm	3.15 ± 0.46	98.77 ± 2.97%	4.27 ± 5.14%	97.23 ± 4.27%	94.50 ± 3.00%										
CC1CC2C3CCC4=CC(=O)C=CC4(C)C3(F)C(O)CC2(C)C1(O)C(=O)CO.Oc1ccccc1O (centres unmarked) [DEX-CAT]	8.49 ± 1.76 μm	24.87 ± 6.75 μm	5.14 ± 0.28	97.83 ± 2.32%	2.38 ± 5.49%	96.73 ± 4.72%	95.45 ± 3.35%	49.27 ± 6.42 μm	76.86	2.4 fold	3 fold						
CC1CC2C3CCC4=CC(=O)C=CC4(C)C3(F)C(O)CC2(C)C1(O)C(=O)CO.Oc1cccc(O)c1 (centres unmarked) [DEX-RES]	4.46 ± 1.93 μm	12.0 ± 0.42 μm	7.69 ± 0.93	99.65 ± 2.58%	4.50 ± 4.07%	97.18 ± 3.87%	95.15 ± 3.17%	35.03 ± 8.92 μm	48.29	2.4 fold	3 fold	35.43 % w/w	35.43±4.97 % w/w	2.30 μm	2.96 μm	2.96±0.49 μm	30.26%
